# From the supplement of paper PMC10307832
# Key:
# Assay in all cases: relative viability (nuclei count vs DMSO), 5 days (fraction); higher = more cells survive
# EKVX = system: EKVX
# Procedure, shortened: (§1)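 Relative viability is defined as nuclei in treated wells over nuclei in vehicle wells. Duplicate plates were run and medians reported. Lung cancer cell lines in 1536-well plates were dosed by pin tool one day after seeding, with one drug or with a fixed anchor-drug dose plus five library-drug doses (not always all listed) in √10 steps, and nuclei were counted after 5 days.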
# HCC-15 = system: HCC-15
# Procedure, shortened: as §1
# LCLC-103H = system: LCLC-103H
# Procedure, shortened: as §1
# NCI-H1395 = system: NCI-H1395
# Procedure, shortened: as §1
# NCI-H1623 = system: NCI-H1623
# Procedure, shortened: as §1
# NCI-H1755 = system: NCI-H1755
# Procedure, shortened: as §1
# UMC-11 = system: UMC-11
# Procedure, shortened: as §1
# A549 = system: A549
# Procedure, shortened: as §1
# Calu-6 = system: Calu-6
# Procedure, shortened: as §1
# EBC-1 = system: EBC-1
# Procedure, shortened: as §1
# HCC-44 = system: HCC-44
# Procedure, shortened: as §1
# IA-LM = system: IA-LM
# Procedure, shortened: as §1
# NCI-H1299 = system: NCI-H1299
# Procedure, shortened: as §1
# NCI-H1648 = system: NCI-H1648
# Procedure, shortened: as §1
# NCI-H1703 = system: NCI-H1703
# Procedure, shortened: as §1
structure (smiles),measurement,setting,value
CC(=O)O[C@@]12CO[C@@H]1C[C@H](O)[C@@]1(C)C(=O)[C@H](O)C3=C(C)[C@@H](OC(=O)[C@H](O)[C@@H](NC(=O)OC(C)(C)C)c4ccccc4)C[C@@](O)([C@@H](OC(=O)c4ccccc4)[C@H]21)C3(C)C [Docetaxel] + Cc1nc(Nc2ncc(C(=O)Nc3c(C)cccc3Cl)s2)cc(N2CCN(CCO)CC2)n1 [Dasatinib] (partner 0.075 µM),relative viability,EKVX; first compound 0.0002 µM,0.472
same,relative viability,EKVX; first compound 0.000632 µM,0.45
same,relative viability,EKVX; first compound 0.002 µM,0.296
same,relative viability,EKVX; first compound 0.006325 µM,0.264
same,relative viability,EKVX; first compound 0.02 µM,0.195
same,relative viability,HCC-15; first compound 0.0002 µM,0.456
same,relative viability,HCC-15; first compound 0.000632 µM,0.221
same,relative viability,HCC-15; first compound 0.002 µM,0.16
same,relative viability,HCC-15; first compound 0.006325 µM,0.21
same,relative viability,HCC-15; first compound 0.02 µM,0.115
same,relative viability,LCLC-103H; first compound 0.0002 µM,0.34
same,relative viability,LCLC-103H; first compound 0.000632 µM,0.456
same,relative viability,LCLC-103H; first compound 0.002 µM,0.337
same,relative viability,LCLC-103H; first compound 0.006325 µM,0.311
same,relative viability,LCLC-103H; first compound 0.02 µM,0.19
same,relative viability,NCI-H1395; first compound 0.0002 µM,0.439
same,relative viability,NCI-H1395; first compound 0.000632 µM,0.469
same,relative viability,NCI-H1395; first compound 0.002 µM,0.402
same,relative viability,NCI-H1395; first compound 0.006325 µM,0.327
same,relative viability,NCI-H1395; first compound 0.02 µM,0.272
same,relative viability,NCI-H1623; first compound 0.0002 µM,0.555
same,relative viability,NCI-H1623; first compound 0.000632 µM,0.529
same,relative viability,NCI-H1623; first compound 0.002 µM,0.472
same,relative viability,NCI-H1623; first compound 0.006325 µM,0.313
same,relative viability,NCI-H1623; first compound 0.02 µM,0.239
same,relative viability,NCI-H1755; first compound 0.0002 µM,0.385
same,relative viability,NCI-H1755; first compound 0.000632 µM,0.359
same,relative viability,NCI-H1755; first compound 0.002 µM,0.306
same,relative viability,NCI-H1755; first compound 0.006325 µM,0.286
same,relative viability,NCI-H1755; first compound 0.02 µM,0.222
same,relative viability,UMC-11; first compound 0.0002 µM,0.429
same,relative viability,UMC-11; first compound 0.000632 µM,0.42
same,relative viability,UMC-11; first compound 0.002 µM,0.264
same,relative viability,UMC-11; first compound 0.006325 µM,0.21
same,relative viability,UMC-11; first compound 0.02 µM,0.171
CC(=O)O[C@@]12CO[C@@H]1C[C@H](O)[C@@]1(C)C(=O)[C@H](O)C3=C(C)[C@@H](OC(=O)[C@H](O)[C@@H](NC(=O)OC(C)(C)C)c4ccccc4)C[C@@](O)([C@@H](OC(=O)c4ccccc4)[C@H]21)C3(C)C [Docetaxel] + O=C(c1cc(Cc2n[nH]c(=O)c3ccccc23)ccc1F)N1CCN(C(=O)C2CC2)CC1 [Olaparib] (partner 8 µM),relative viability,A549; first compound 0.0002 µM,0.341
same,relative viability,A549; first compound 0.000632 µM,0.0796
same,relative viability,A549; first compound 0.002 µM,0.0511
same,relative viability,A549; first compound 0.006325 µM,0.0681
same,relative viability,A549; first compound 0.02 µM,0.0279
same,relative viability,Calu-6; first compound 0.0002 µM,0.604
same,relative viability,Calu-6; first compound 0.000632 µM,0.454
same,relative viability,Calu-6; first compound 0.002 µM,0.243
same,relative viability,Calu-6; first compound 0.006325 µM,0.128
same,relative viability,Calu-6; first compound 0.02 µM,0.0895
same,relative viability,EBC-1; first compound 0.0002 µM,0.579
same,relative viability,EBC-1; first compound 0.000632 µM,0.358
same,relative viability,EBC-1; first compound 0.002 µM,0.213
same,relative viability,EBC-1; first compound 0.006325 µM,0.217
same,relative viability,EBC-1; first compound 0.02 µM,0.162
same,relative viability,EKVX; first compound 0.0002 µM,0.839
same,relative viability,EKVX; first compound 0.000632 µM,0.557
same,relative viability,EKVX; first compound 0.002 µM,0.387
same,relative viability,EKVX; first compound 0.006325 µM,0.316
same,relative viability,EKVX; first compound 0.02 µM,0.167
same,relative viability,HCC-15; first compound 0.0002 µM,0.72
same,relative viability,HCC-15; first compound 0.000632 µM,0.382
same,relative viability,HCC-15; first compound 0.002 µM,0.281
same,relative viability,HCC-15; first compound 0.02 µM,0.175
same,relative viability,HCC-44; first compound 0.0002 µM,0.978
same,relative viability,HCC-44; first compound 0.000632 µM,0.954
same,relative viability,HCC-44; first compound 0.002 µM,0.908
same,relative viability,HCC-44; first compound 0.006325 µM,0.682
same,relative viability,HCC-44; first compound 0.02 µM,0.616
same,relative viability,IA-LM; first compound 0.0002 µM,0.687
same,relative viability,IA-LM; first compound 0.000632 µM,0.326
same,relative viability,IA-LM; first compound 0.002 µM,0.153
same,relative viability,IA-LM; first compound 0.006325 µM,0.0861
same,relative viability,IA-LM; first compound 0.02 µM,0.074
same,relative viability,LCLC-103H; first compound 0.0002 µM,0.744
same,relative viability,LCLC-103H; first compound 0.000632 µM,0.803
same,relative viability,LCLC-103H; first compound 0.002 µM,0.748
same,relative viability,LCLC-103H; first compound 0.006325 µM,0.643
same,relative viability,LCLC-103H; first compound 0.02 µM,0.481
same,relative viability,NCI-H1299; first compound 0.0002 µM,0.95
same,relative viability,NCI-H1299; first compound 0.000632 µM,0.9
same,relative viability,NCI-H1299; first compound 0.002 µM,0.628
same,relative viability,NCI-H1299; first compound 0.006325 µM,0.351
same,relative viability,NCI-H1299; first compound 0.02 µM,0.241
same,relative viability,NCI-H1395; first compound 0.0002 µM,0.502
same,relative viability,NCI-H1395; first compound 0.000632 µM,0.469
same,relative viability,NCI-H1395; first compound 0.002 µM,0.481
same,relative viability,NCI-H1395; first compound 0.006325 µM,0.341
same,relative viability,NCI-H1395; first compound 0.02 µM,0.339
same,relative viability,NCI-H1648; first compound 0.0002 µM,0.773
same,relative viability,NCI-H1648; first compound 0.000632 µM,0.563
same,relative viability,NCI-H1648; first compound 0.002 µM,0.338
same,relative viability,NCI-H1648; first compound 0.006325 µM,0.279
same,relative viability,NCI-H1648; first compound 0.02 µM,0.21
same,relative viability,NCI-H1703; first compound 0.0002 µM,0.372
same,relative viability,NCI-H1703; first compound 0.000632 µM,0.538
same,relative viability,NCI-H1703; first compound 0.002 µM,0.204
same,relative viability,NCI-H1703; first compound 0.006325 µM,0.174
same,relative viability,NCI-H1703; first compound 0.02 µM,0.0787
same,relative viability,NCI-H1755; first compound 0.0002 µM,0.87
same,relative viability,NCI-H1755; first compound 0.000632 µM,0.729
same,relative viability,NCI-H1755; first compound 0.002 µM,0.578
same,relative viability,NCI-H1755; first compound 0.006325 µM,0.417
same,relative viability,NCI-H1755; first compound 0.02 µM,0.377
same,relative viability,UMC-11; first compound 0.0002 µM,0.371
same,relative viability,UMC-11; first compound 0.000632 µM,0.352
same,relative viability,UMC-11; first compound 0.002 µM,0.221
same,relative viability,UMC-11; first compound 0.006325 µM,0.289
same,relative viability,UMC-11; first compound 0.02 µM,0.229
